{
  "source": "patent US20020006908A1",
  "about": "“ANTICONVULSANT DERIVATIVES USEFUL IN TREATING SCHIZOPHRENIA” (priority 1998, published 2002)",
  "origin": "cited, not measured here",
  "key": {"[1]": {"tested_on": "animal model of kindled epilepsy"}, "[2]": {"tested_on": "brain GABA activity"}, "[3]": {"tested_on": "rodent models of epilepsy", "details": "several rodent models of epilepsy"}, "[4]": {"tested_on": "human epilepsy", "details": "adjunctive therapy or monotherapy, clinical trials of human epilepsy"}, "[5]": {"tested_on": "glutamate receptor"}},
  "data": [
    {"compound": "CC1(C)O[C@@H]2[C@@H](CO[C@@]3(COS(N)(=O)=O)OC(C)(C)O[C@@H]23)O1", "note": "[topiramate, 2,3:4,5-bis-O-(1-methylethylidene)-β-D-fructopyranose sulfamate]", "values": [
      {"measurement": "seizure block", "setting": "[1]", "value": "effectively block seizures"},
      {"measurement": "effect on brain GABA activity", "setting": "[2]", "value": "enhancement of brain GABA activity"},
      {"measurement": "seizure block", "setting": "[3]", "value": "effectively block seizures"},
      {"measurement": "efficacy in treating simple and complex partial seizures and secondarily generalized seizures", "setting": "[4]", "value": "effective"},
      {"measurement": "effect on glutamate receptor activity", "setting": "[5]", "value": "reduced glutamate receptor activity"}
    ]}
  ]
}
